Numbers after ± are expanded uncertainties.
Experiment: cn = amount concentration of the nth substance listed, in mol/dm3
Details: 101.3 kPa, Liquid, c1 = 2

Compound	viscosity (298.15 K)	viscosity (303.15 K)	viscosity (308.15 K)	viscosity (313.15 K)	viscosity (318.15 K)	viscosity (323.15 K)	viscosity (328.15 K)
[Cl-].[Na+] [sodium chloride] + O	1.085 ± 0.014 mPa·s	0.9761 ± 0.013 mPa·s	0.8816 ± 0.012 mPa·s	0.8069 ± 0.011 mPa·s	0.7426 ± 0.01 mPa·s	0.676 ± 0.0095 mPa·s	0.6257 ± 0.0088 mPa·s
O=[N+]([O-])[O-].[Na+] [sodium nitrate] + O	1.036 ± 0.014 mPa·s	0.9367 ± 0.013 mPa·s	0.8519 ± 0.012 mPa·s	0.7777 ± 0.011 mPa·s	0.7167 ± 0.0099 mPa·s	0.6559 ± 0.0092 mPa·s	0.6043 ± 0.0086 mPa·s

Source: the NIST ThermoML archive (doi:10.1021/je1000878)
